One may read the IC50 as the concentration needed to halve the response being measured. As a reminder, the EC50 is the concentration giving half of the maximal effect. Lower therefore signals a more potent agent.

The results in this text go back to patent US11912737B2, “19-nor neuroactive steroids and methods of use thereof” (Sage Therapeutics, Inc., priority 2013, dated 2024).

Where only a bound is given, the exact number is not on record here.

The first assay concerns the target [35S]-TBPS binding, rat brain cortical membranes. The assay is described as follows: Steroid inhibition of [35S]-TBPS binding. The following applies: 3 nM [35S]-TBPS, in the presence of 5 μM GABA. How it is done:
Steroid Inhibition of TBPS Binding
[35S]-t-Butylbicylophorothionate (TBPS) binding assays using rat brain cortical membranes in the presence of 5 μM GABA has been described (Gee et al, J. Pharmacol. Exp. Ther. 1987, 241, 346-353; Hawkinson et al, Mol. Pharmacol. 1994, 46, 977-985; Lewin, A. H et al., Mol. Pharmacol. 1989, 35, 189-194).
Briefly, cortices are rapidly removed following decapitation of carbon dioxide-anesthetized Sprague-Dawley rats (200-250 g). The cortices are homogenized in 10 volumes of ice-cold 0.32 M sucrose using a glass/teflon homogenizer and centrifuged at 1500×g for 10 min at 4° C. The resultant supernatants are centrifuged at 10,000×g for 20 min at 4° C. to obtain the P2 pellets. The P2 pellets are resuspended in 200 mM NaCl/50 mM Na—K phosphate pH 7.4 buffer and centrifuged at 10,000×g for 10 min at 4° C. This washing procedure is repeated twice and the pellets are resuspended in 10 volumes of buffer. Aliquots (100 μL) of the membrane suspensions are incubated with 3 nM [^35S]-TBPS and 5 μL aliquots of test drug dissolved in dimethyl sulfoxide (DMSO) (final 0.5%) in the presence of 5 μM GABA. The incubation is brought to a final volume of 1.0 mL with buffer. Nonspecific binding is determined in the presence of 2 μM unlabeled TBPS and ranged from 15 to 25%. Following a 90 min incubation at room temp, the assays are terminated by filtration through glass fiber filters (Schleicher and Schuell No. 32) using a cell harvester (Brandel) and rinsed three times with ice-cold buffer. Filter bound radioactivity is measured by liquid scintillation spectrometry. Non-linear curve fitting of the overall data for each drug averaged for each concentration is done using Prism (GraphPad).
Various compounds are or can be screened to determine their potential as modulators of [^355]-TBPS binding in vitro. These assays are or can be performed in accordance with the above discussed procedures.
Turning to `CC(=O)N1CCN(CC(=O)[C@H]2CC[C@H]3[C@@H]4CC[C@H]5C[C@](C)(O)[C@@H](C)C[C@@H]5[C@H]4CC[C@]23C)CC1` [Entry 21], the IC50 was 100 to 500 nM.

In the case of `C[C@@]1(O)CC[C@H]2[C@@H](CC[C@@H]3[C@@H]2CC[C@]2(C)[C@@H](C(=O)CN4CCC(O)CC4)CC[C@@H]32)C1` [Entry 12], the IC50 was at least 500 nM.

Consider `C[C@@H]1C[C@H]2[C@@H](CC[C@@H]3[C@@H]2CC[C@]2(C)[C@@H](C(=O)CN4CCN(S(C)(=O)=O)CC4)CC[C@@H]32)C[C@]1(C)O` [Entry 25], for which the IC50 lay within 50 to 100 nM.

As to `CC(=O)N1CCN(CC(=O)[C@H]2CC[C@H]3[C@@H]4CC[C@H]5C[C@](C)(O)CC[C@@H]5[C@H]4CC[C@]23C)CC1` [Entry 13], the IC50 was in the range of 100 to 500 nM.

Consider `C[C@@H]1COCCN1CC(=O)[C@H]1CC[C@H]2[C@@H]3CC[C@@H]4C[C@](C)(O)CC[C@@H]4[C@H]3CC[C@]12C` [Entry 11], for which the IC50 lay in the range of 100 to 500 nM.

As for `C[C@]12CC[C@H]3[C@@H](CC[C@@H]4C[C@@](O)(C(F)F)CC[C@@H]43)[C@@H]1CC[C@@H]2C(=O)CN1CCOCC1` [Entry 40], the IC50 was at least 500 nM.

Turning to `C[C@H]1C[C@H]2[C@@H](CC[C@@H]3[C@@H]2CC[C@]2(C)[C@@H](C(=O)CN4CCOCC4)CC[C@@H]32)C[C@]1(C)O` [Entry 18], the IC50 was in the range of 100 to 500 nM.

In the case of `C[C@]12CC[C@H]3[C@@H](CC[C@H]4C[C@@](O)(CF)CC[C@@H]43)[C@@H]1CC[C@@H]2C(=O)CN1CCOCC1` [Entry 48], the half-inhibitory concentration (IC50) is at least 500 nM.

`C[C@@]1(O)CC[C@H]2[C@H](CC[C@@H]3[C@@H]2CC[C@]2(C)[C@@H](C(=O)CN4CCNCC4)CC[C@@H]32)C1` [Entry 23]: the IC50 was at least 500 nM.

With `COC[C@@]1(O)CC[C@H]2[C@@H](CC[C@@H]3[C@@H]2CC[C@]2(C)[C@@H](C(=O)CN4CCOCC4)CC[C@@H]32)C1` [Entry 42], the IC50 was at least 500 nM.

`C[C@]12CC[C@H]3[C@@H](CC[C@@H]4C[C@@](O)(CF)CC[C@@H]43)[C@@H]1CC[C@@H]2C(=O)CN1CCOCC1` [Entry 46]: the IC50 is at least 500 nM.

On to `CC[C@@]1(O)CC[C@H]2[C@@H](CC[C@@H]3[C@@H]2CC[C@]2(C)[C@@H](C(=O)CN4CCOCC4)CC[C@@H]32)C1` [Entry 49], for which the IC50 is at least 500 nM.

On to `C[C@@]1(O)CC[C@@H]2[C@H]3CC[C@]4(C)[C@@H](C(=O)CN5CCOCC5)CC[C@H]4[C@@H]3C[C@@H](F)[C@H]2C1` [Entry 38], for which the IC50 was at least 500 nM.

Consider `C[C@@H]1CCCCN1CC(=O)[C@H]1CC[C@H]2[C@@H]3CC[C@@H]4C[C@](C)(O)CC[C@@H]4[C@H]3CC[C@]12C` [Entry 37], for which the IC50 is 100 to 500 nM.

`COC[C@@]1(O)CC[C@H]2[C@@H](CC[C@@H]3[C@@H]2CC[C@]2(C)[C@@H](C(=O)CN4CCN(S(C)(=O)=O)CC4)CC[C@@H]32)C1` [Entry 52]: the IC50 is 100 to 500 nM.

Consider `C[C@@]1(O)CC[C@H]2[C@H](CC[C@@H]3[C@@H]2CC[C@]2(C)[C@@H](C(=O)CN4CC(O)C4)CC[C@@H]32)C1` [Entry 5], for which the IC50 is at least 500 nM.

On to `COC[C@@]1(O)CC[C@H]2[C@H](CC[C@@H]3[C@@H]2CC[C@]2(C)[C@@H](C(=O)CN4CCN(S(C)(=O)=O)CC4)CC[C@@H]32)C1` [Entry 22], for which the IC50 fell in the range of 100 to 500 nM.

For the compound `C[C@@]1(O)CC[C@H]2[C@H](CC[C@@H]3[C@@H]2CC[C@]2(C)[C@@H](C(=O)CN4CCCOCC4)CC[C@@H]32)C1` [Entry 53], the IC50 fell in the range of 100 to 500 nM.

In the case of `C[C@@]1(O)CC[C@H]2[C@H](CC[C@@H]3[C@@H]2CC[C@]2(C)[C@@H](C(=O)CN4CCNCC4)CC[C@@H]32)C1` [Entry 51], the IC50 was 100 to 500 nM.

Regarding `CO[C@H]1C[C@H]2[C@@H](CC[C@@H]3[C@@H]2CC[C@]2(C)[C@@H](C(=O)CN4CCOCC4)CC[C@@H]32)C[C@]1(C)O` [Entry 41], the 50% inhibitory concentration (IC50) was at least 500 nM.

As to `C[C@@]1(O)CC[C@@H]2[C@H]3CC[C@]4(C)[C@@H](C(=O)CN5CCOCC5)CC[C@H]4[C@@H]3C[C@@H](F)[C@@H]2C1` [Entry 44], the IC50 is at least 500 nM.

Regarding `CC[C@@]1(O)CC[C@H]2[C@@H](CC[C@@H]3[C@@H]2CC[C@]2(C)[C@@H](C(=O)CN4CCN(S(C)(=O)=O)CC4)CC[C@@H]32)C1` [Entry 33], the IC50 was 100 to 500 nM.

For the compound `COC[C@@]1(O)CC[C@H]2[C@H](CC[C@@H]3[C@@H]2CC[C@]2(C)[C@@H](C(=O)CN4CCOCC4)CC[C@@H]32)C1` [Entry 43], the 50% inhibitory concentration (IC50) was at least 500 nM.

In the case of `C[C@H]1CN(CC(=O)[C@H]2CC[C@H]3[C@@H]4CC[C@@H]5C[C@](C)(O)CC[C@@H]5[C@H]4CC[C@]23C)C[C@H](C)O1` [Entry 31], the IC50 was in the range of 10 to 50 nM.

Take `C[C@@]1(O)CC[C@H]2[C@@H](CC[C@@H]3[C@@H]2CC[C@]2(C)[C@@H](C(=O)CN4CCCC(O)C4)CC[C@@H]32)C1` (some centres unmarked) [Entry 15]: the IC50 is at least 500 nM.

As for `C[C@@]1(O)CC[C@H]2[C@@H](CC[C@@H]3[C@@H]2CC[C@]2(C)[C@@H](C(=O)CN4CCNCC4)CC[C@@H]32)C1` [Entry 24], the IC50 is at least 500 nM.

Consider `C[C@@H]1C[C@H]2[C@@H](CC[C@@H]3[C@@H]2CC[C@]2(C)[C@@H](C(=O)CN4CCOCC4)CC[C@@H]32)C[C@]1(C)O` [Entry 39], for which the IC50 fell in the range of 100 to 500 nM.

With `CC(=O)N1CCN(CC(=O)[C@H]2CC[C@H]3[C@@H]4CC[C@H]5C[C@](C)(O)[C@H](C)C[C@@H]5[C@H]4CC[C@]23C)CC1` [Entry 20], the IC50 lay in the range of 100 to 500 nM.

Another assay has as its target α1β2γ2 GABAA receptor (Homo sapiens (Human), UniProt P14867+P47870).
Test: not given
Details: not given
In turn, `C[C@@H]1CN(CC(=O)[C@H]2CC[C@H]3[C@@H]4CC[C@@H]5C[C@](C)(O)CC[C@@H]5[C@H]4CC[C@]23C)CCO1` [Entry 2] yielded an EC50 of 1000 to 2000 nM.

The assay is the same for the next values; noted with them: LTK, read-out: GABA (α1β2γ2) Qpatch in Ltk, % efficacy at 10 μM, Qpatch, Ltk cells, 10 μM compound, 2 μM GABA.
As to `C[C@@]1(O)CC[C@H]2[C@H](CC[C@@H]3[C@@H]2CC[C@]2(C)[C@@H](C(=O)CN4CCCOCC4)CC[C@@H]32)C1` [Entry 58], the Emax at 10 µM was over 500%.

`COC[C@@]1(O)CC[C@H]2[C@@H](CC[C@@H]3[C@@H]2CC[C@]2(C)[C@@H](C(=O)CN4CCOCC4)CC[C@@H]32)C1` [Entry 50]: the Emax at 10 µM was in the range of 10 to 100%.

Regarding `CNC(=O)N1CCN(CC(=O)[C@H]2CC[C@H]3[C@@H]4CC[C@@H]5C[C@](C)(O)CC[C@@H]5[C@H]4CC[C@]23C)CC1` [Entry 9], the Emax at 10 µM was in the range of 100 to 500%.

In the case of `CC(=O)N1CCN(CC(=O)[C@H]2CC[C@H]3[C@@H]4CC[C@@H]5C[C@](C)(O)CC[C@@H]5[C@H]4CC[C@]23C)CC1` [Entry 17], the Emax at 10 µM was in the range of 100 to 500%.

The same assay, now with this note: LTK, read-out: GABAa alpha1 (α1β2γ2) Emax (%), potentiation of GABA EC20 (2 μM) current.
On to `C[C@@H]1CN(CC(=O)[C@H]2CC[C@H]3[C@@H]4CC[C@@H]5C[C@](C)(O)CC[C@@H]5[C@H]4CC[C@]23C)CCO1` [Entry 2], for which the Emax is 0 to 500%.

Still in this assay, the particulars now being: Qpatch, Ltk cells, 10 μM compound, 2 μM GABA.
As for `COC[C@@]1(O)CC[C@H]2[C@@H](CC[C@@H]3[C@@H]2CC[C@]2(C)[C@@H](C(=O)CN4CCN(S(C)(=O)=O)CC4)CC[C@@H]32)C1` [Entry 29], the “GABA (α1β2γ2) Qpatch in Ltk, % efficacy at 10 μM” value is “B (“B” ≥100-500)”.
